Where two headings read alike, the source gives them in different places.
Experiments:
[1] = system: bovine cardiac myofibrils; assay: NADH-coupled ATPase activity of isolated cardiac myofibrils; assay type: biochemical; settings: sub-maximal activation (~70% of maximal), pCa 5.8
Protocol: Bovine cardiac myofibrils (CMF) were freshly prepared from bovine ventricle as previously described[49]. The NADH-coupled ATPase assay was adapted to test the effects of drugs on bovine cardiac myofibrils[50]. Briefly, buffers with varying free [Ca^2+] were prepared by adding the appropriate concentrations of EGTA and CaCl2 calculated using the MAXCHELATOR software. ATPase assays for hits identified in the cTnI switch peptide and anchoring region screens were performed at pCa 6 and pCa 5.8, respectively. […] 20 μL Enzyme mix was added to individual wells using a 12-well multichannel pipette. Appropriate concentrations of drugs were added to each well and the plate was shaken at 1000 rpm for 5 min on a plate shaker and further incubated at room temperature for 10 min. Substrate mix was dispensed into each well using the Gilson PipetMax. The plate was briefly spun down to ensure removal of air bubbles. The reaction was followed by recording the fluorescence intensity of each well with excitation at 380 nm and emission at 470 nm, for 10 min scanning the plate every 30 s. The temperature was kept constant at 25 °C. ATPase rates were extracted by linear regression to datapoints in GraphPad Prism.

cTnC-cTnIAR interaction = cTnC-cTnIAR interaction (Homo sapiens, UniProt P63316); assay: ITC titration of unlabelled cTnIAR peptide into cTnC without or with compound
[2] = target: interaction between cTnC and the anchoring region of cTnI (cTnIAR) (Homo sapiens, UniProt P63316); assay: Fluorescence polarization HTS, binding and dose-response, cTnC/FAM-cTnIAR; settings: for FP at higher drug concentrations: > 10 μmol/L, potentially assay interference; for FP (mP): cTnIAR primary screen, single concentration 10 μmol/L; for Total fluorescence intensity of the assay mixture: concentrations of up to 100 μmol/L, 2 nmol/L FAM-cTnIAR, 5 nmol/L cTnC; for Effect on FP from the cTnC FAM-cTnIAR mixture: dose-response, concentration dependent (Fig. 2c)
Protocol: (§1) Each compound was tested at a concentration of 50 μmol/L and 10 μmol/L for the cTnISP and cTnIAR screen, respectively. Hits were defined as compounds that changed the average FP value more than five-times the standard deviation (SD) (Fig. 1d, red lines). Moreover, compounds that either increased or decreased the total fluorescence intensity (FI) more than five-times the SD were removed from further analysis, indicating either compound aggregation or unspecific interactions with the fluorophore or protein complex.
(§2) Libraries were reformatted from 96-well plates to Greiner 384-well black plates using a GILSON PipetMax. The plates were sealed with adhesive foil and stored at − 20 °C until further use. […] A total of 40 nL of 10 mmol/L compound stocks were transferred to each well using a Mosquito liquid handler system (final DMSO concentration of 0.1% (v/v)). The plates were incubated in the dark for 30 min at 25 °C, and the fluorescence polarization from each well was measured using a ClarioStar Plate reader with appropriate excitation and emission filter settings. Dose–response curves were constructed by serial dilution of compounds in DMSO and adding a fixed volume to a mixture of peptide and cTnC.
(§3) Fluorescence polarization dose–response and binding experiments were performed in Greiner 384-well black plates in assay buffer (20 mmol/L Tris–HCl pH 7, 100 mmol/L NaCl, 1 mmol/L CaCl2, 1 mmol/L DTT) at 25 °C.

Ca2+-saturated cTnC = Ca2+-saturated cTnC (Homo sapiens, UniProt P63316); assay: ITC binding to full length Ca2+-saturated cTnC; settings: for Kd: means ± SEM, n = 3
[3] = Solubility in aqueous buffer; assay type: physicochemical
Protocol: Figure S2. […] D MSO stocks of NS5806 were diluted with assay
buffer to the indicated concentrations (fixed DMSO concentration of 0.1% (v/v)), potential
aggregates removed by ultra -centrifugation and the absorbance at 296 nm plotted against the
in aqueous buffers up to a concentration of at least 500 µmol/L. (B) Total fluorescent intensity
dose-response curves for Claramine (red) and Furamidine (green) in the presence of 2 nmol/L
(1 picture or pasted object on this page, not shown here)

[4] = system: demembranated human donor ventricular tissue; assay: Force-pCa titrations of demembranated human donor myocardium; assay type: cell-based; settings: 100 μmol/L, 2 μm sarcomere length
Protocol: We tested for the functional effects of hit compounds by measuring the calcium sensitivity of force development of chemically demembranated human donor ventricular tissue at 2 μm sarcomere length in the absence and in the presence of 100 μmol/L compounds (Fig. 6). Force-pCa (pCa = −log10[Ca^2+]) relations for each preparation was measured in the absence and in the presence of each compound, so that each muscle preparation served as its own control.
Briefly, each demembranated cardiac muscle strip underwent a control force-pCa titration in the absence of compounds with the sarcomere length adjusted to about 2 µm by laser diffraction. Drugs were freshly diluted in DMSO and added to physiological buffer solutions. The final DMSO concentration was held constant at 0.2% (v/v). Subsequently, demembranated human heart muscle strips were equilibrated in relaxing solution (pCa 7) containing the appropriate concentrations of drugs for 25 min at 22 °C and the force-pCa titration repeated. Thus, each cardiac muscle strip served as its own negative control and force data were normalized to the maximal force of each preparation in the absence of compounds.

CcTnC = system: CcTnC; design: method as in PMID 11320096, PMID 10913289; settings: cited from earlier work
[5] = system: CcTnC and cTnIAR interaction; design: method as in PMID 11320096, PMID 10913289; settings: NMR spectroscopy; cited from earlier work
[6] = target: T1, interaction between cTnC and switch peptide of cTnI (cTnISP) (Homo sapiens, UniProt P63316); assay: Fluorescence polarization HTS and dose-response, cTnC/FAM-cTnISP; assay type: binding; settings: cTnISP primary screen, single concentration 50 μmol/L
Protocol: as §1, §2, §3

Ca2+-saturated cChimera = system: Ca2+-saturated cChimera; design: method as in PMID 35755445; settings: cited from earlier work
[7] = target: Ca2+-saturated N-lobe of cTnC; design: method as in PMID 35755445; settings: isolated Ca2+-saturated N-lobe of cTnC; cited from earlier work
[8] = target: T1, interaction between cTnC and switch peptide of cTnI (cTnISP); design: method as in PMID 33315370; settings: printed in Fig. 1c; assay previously published; cited from earlier work

CC(C)CCCC(C)C1CCC2C3CC(NCCCNCCCCNCCCN)C4CC(O)CCC4(C)C3CCC12C (stereo not shown) [Claramine]
Decrease of myofibrilar ATPase activity [1]: 40–50%
Effect on the interaction / binding affinity of cTnC for cTnIAR (cTnC-cTnIAR interaction): no or little effect
FP at higher drug concentrations [2]: sudden increase in the FP
FP (mP) ([2]; LOPAC 1280 library): 53.9 mP
Total fluorescence intensity of the assay mixture [2]: not affected
Effect on FP from the cTnC FAM-cTnIAR mixture [2]: decreased the FP
T∆S (Ca2+-saturated cTnC): 5.21 ± 0.311 kcal/mol
∆H (Ca2+-saturated cTnC): -1.1 ± 0.311 kcal/mol
Kd (Ca2+-saturated cTnC): 21.6 ± 1.8 µM
solubility ([3]; aqueous solutions, read-out: Solubility in aqueous solutions): > 25 mM
Effect on calcium sensitivity / force-pCa relation [4]: no or little effect

COc1ccc(C(=O)N2CCCc3cc(C4=NNC(=O)SC4C)ccc32)cc1OC (stereo not shown) [EMD 57033]
Affinity (CcTnC): micromolar affinity
Effect on the CcTnC and cTnIAR interaction in vitro [5]: no significant effect

N=C(N)c1ccc(-c2ccc(-c3ccc(C(=N)N)cc3)o2)cc1 [Furamidine]
Decrease of myofibrilar ATPase activity [1]: 40–50%
Effect on the interaction / binding affinity of cTnC for cTnIAR (cTnC-cTnIAR interaction): reduced by several orders of magnitude
FP at higher drug concentrations [2]: sudden increase in the FP
FP (mP) ([2]; TOCRIScreen library): 73.2 mP
Total fluorescence intensity of the assay mixture [2]: not affected
Effect on FP from the cTnC FAM-cTnIAR mixture [2]: decreased the FP
T∆S (Ca2+-saturated cTnC): 1.84 ± 0.72 kcal/mol
∆H (Ca2+-saturated cTnC): -4.64 ± 0.758 kcal/mol
Kd (Ca2+-saturated cTnC): 11.9 ± 5.5 µM
FP (mP) ([6]; LOPAC 1280 library): 91.8 mP
FP (mP) ([6]; TOCRIScreen library): 83.1 mP
solubility [3]: > 25 mM
Effect on calcium sensitivity / force-pCa relation [4]: slightly increased the calcium sensitivity
Effect on maximal isometric force development [4]: no effect
Steepness of the force-pCa relation (nH) [4]: no effect

O=C(O)c1ccc(-c2ccccc2Nc2cccc(Cl)c2)cc1 [RPI-194]
Affinity (Ca2+-saturated cChimera): low micromolar affinity
Kd [7]: > 300 µM

FAM-A162H-cTnISP: N-terminally FAM labelled A162H-mutated switch region peptide of human cardiac troponin I, sequence TLRRVRISADAMMQALLGARHKESLDLR
Kd [8]: ~10 µM
